Assay results taken from patent US9580426B2, “Compounds that expand hematopoietic stem cells” (Novartis AG, priority 2008, dated 2017).

What was measured:
mPB-derived CD34+ cells = assay: Genome-wide transcriptional profiling; assay type: cell-based, human; conditions: 24 hours
From the text: The two genes that were the most highly repressed by treatment with Example 1 (cytochrome P450 1B1 [CYP1B1] and the aryl hydrocarbon receptor repressor [AHRR]) are transcriptionally regulated by the aryl hydrocarbon receptor (AHR). Therefore, compounds of the invention could be acting as an antagonist of AHR signaling.

mPB and CB derived HSCs = assay: Transplantation of cultured human CD34+ cells into NOD/SCID mice (engraftment); assay type: in vivo, human cells in NOD/SCID mice; conditions: HSCs cultured at 1 micromolar, mPB 4 days, CB 21 days
Experimental: Transplantation of human CD34^+ cells into NOD.CB 17-Prkdc^scid mice (NOD/SCID): To assess the in vivo repopulating capacity of CD34^+ cells and their cultured progeny, uncultured CD34^+ or the progenies of cultured CD34^+ cells after 4 days (mPB) or 21 days (CB) with vehicle or a test compound were injected intravenously via the retro-orbital route into sub-lethally irradiated (3.0 Gy) 8- to 10-week-old NOD/SCID (for mPB HSC experiments) or NOD/SCIDgc−/− (for CB HSC experiments) mice. To monitor engraftment blood was drawn weekly via the retro-orbital and treated with erythrocyte lysis solution (Qiagen, Valencia, Calif.) to remove red blood cells, washed with staining media, and analyzed by flow Cytometry. Engraftment was measured by detection of anti-human CD45^+ cells in the blood. The mice are sacrificed at 10 weeks post-transplantation; BM is collected from both femurs and tibiae. BM cells are washed in staining media and stained with anti-human antibodies. Following incubation, the suspension is treated with erythrocyte lysis solution (Qiagen, Valencia, Calif.) to remove red blood cells, washed with staining media, and analyzed by flow Cytometry, as described earlier.

mPB-derived CD34+ cell = assay: 7 day culture with AHR antagonists, expansion of CD34+ cells; assay type: cell-based, human; conditions: 0.75 μM; 7 days
Experimental: To further explore the role of AHR signaling in HSCs two other AHR antagonists (alpha-naphthoflavone and CH-223191) were tested. Both compounds lead to dose dependent increases in the number of CD34^+ cells when cultured with mPB-derived CD34^+ cell for 7 days: inclusion of 1 μM CH223191 afforded a 2.2-fold expansion of CD34^+ cells; 0.75 μM α-naphthoflavone afforded a 1.9-fold expansion of CD34^+ cells while 0.75 μM Example 1 afforded a 3.4-fold expansion of total CD34^+ cells. […] Forty-eight hours following transduction, CD34+GFP^+ cells were purified by cell sorting and the levels of AHR were determined by qPCR. Both AHR targeting shRNAs led to decreases in AHR expression following transduction (81% with sh111 and 51% with sh242). These decreases were not seen in cells lacking GFP or in cells transduced with control virus.

murine HSC = assay: Activity on murine HSC; assay type: cell-based
AHR = molecular target: T1, AHR (Rattus norvegicus, UniProt P41738); assay: Dioxin induced AHR dependent transcription, rat cells; assay type: cell-based
T1 construct: had no activity on rat cells; endogenous in cells; host or cells: unnamed rat cells
T1 sequence (P41738 10-853): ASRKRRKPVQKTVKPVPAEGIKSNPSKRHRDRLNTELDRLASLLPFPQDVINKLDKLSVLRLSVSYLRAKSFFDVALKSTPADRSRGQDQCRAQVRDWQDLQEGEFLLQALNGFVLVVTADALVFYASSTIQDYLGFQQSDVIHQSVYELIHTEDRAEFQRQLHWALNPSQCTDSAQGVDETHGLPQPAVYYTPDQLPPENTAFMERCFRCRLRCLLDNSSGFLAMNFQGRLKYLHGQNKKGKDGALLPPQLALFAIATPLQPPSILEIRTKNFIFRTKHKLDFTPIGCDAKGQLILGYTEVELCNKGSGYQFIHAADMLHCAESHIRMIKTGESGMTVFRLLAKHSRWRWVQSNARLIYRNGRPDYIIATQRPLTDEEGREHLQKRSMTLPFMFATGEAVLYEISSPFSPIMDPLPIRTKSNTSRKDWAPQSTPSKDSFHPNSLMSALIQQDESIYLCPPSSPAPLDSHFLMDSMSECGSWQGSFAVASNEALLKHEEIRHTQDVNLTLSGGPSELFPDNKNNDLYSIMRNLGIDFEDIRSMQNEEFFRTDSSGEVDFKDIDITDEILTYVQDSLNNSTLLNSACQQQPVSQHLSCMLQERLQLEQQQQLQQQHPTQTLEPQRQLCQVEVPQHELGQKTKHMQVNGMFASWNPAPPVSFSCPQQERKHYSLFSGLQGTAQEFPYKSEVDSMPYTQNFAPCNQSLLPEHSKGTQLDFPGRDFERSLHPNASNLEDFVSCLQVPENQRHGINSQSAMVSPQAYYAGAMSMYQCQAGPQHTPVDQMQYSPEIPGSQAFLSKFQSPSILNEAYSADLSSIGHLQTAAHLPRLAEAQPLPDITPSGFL
Experimental: Further, the ability of Example 1 to block 2,3,7,8-tetrachlorodibenzo-p-dioxin (TCDD, dioxin)-mediated CYP1B1 mRNA expression by qPCR in mPB-derived CD34^+ cells was determined. Treatment with TCDD (3 nM) caused a 4.5-fold increase in the level of CYP1B1 mRNA compared with the vehicle control (0.01% toluene). […] To determine the effects of Example 1 in AHR transcription the ability of Example 1 to inhibit a dioxin-induced AHR dependent luciferase reporter gene assay was tested.

Which “down-regulation of 5 genes (most repressed: CYP1B1, AHRR)” value (mPB-derived CD34+ cells; 1 μM) does the source give for CC(C)n1cnc2c(NCCc3ccc(O)cc3)nc(-c3csc4ccccc34)nc21 [Example 1, 4-(2-(2-(benzo[b]thiophen-3-yl)-9-isopropyl-9H-purin-6-ylamino)ethyl)phenol] here?
The value was over 70%.

What about the “up-regulation of 5 genes of >50,000 probe sets” value (mPB-derived CD34+ cells) of the same compound?
Its value is “greater than 3 fold”.

And the “percentage of human cells 10 weeks after engraftment” value (mPB and CB derived HSCs)?
Its value is “statistically significant increase”.

What about the “expansion of CD34+ cells” value (mPB-derived CD34+ cell) of the same compound?
The value was 3.4 fold.

And the “activity on murine HSC” value (murine HSC)?
Its value is “lack of activity”.

What about the “agonist activity (AHR dependent transcription)” value (AHR) of the same compound?
The value was “only weak agonist activity”.

And the “inhibition of dioxin induced transcription” value (AHR)?
The value was “no activity”.
